Measured values as given in patent US20110237455A1, “ARRAY ANALYSIS FOR ONLINE DETECTION” (EPPENDORF AG, priority 2010, published 2011).
Entries after “also recorded” stand apart in the source; their conditions may differ.

Key:
[1] = Absorbance spectrum of light absorbing agents; assay type: physicochemical; conditions: light absorbing agent at 1%; for Absorbance spectrum (estimated min-max): estimated width of band covering around 90% of the dye absorbance
Text: (§1) Table 1 summarizes the properties of different light absorbing agents tested according to the invention. The Table presents the absorbance peak and the estimated width of the absorbance band, based on the experimental spectra covering around 90% of the dye absorbance. The intrinsic fluorescence of the agents at the emission wavelength of 570 nm (green channel) or at the emission of 666 nm (red channel) is indicated. Intrinsic fluorescence is expressed as the percentage of the fluorescence compared to cy3 fluorescence if present at 1 μM for green channel (=100%) or Oyster645 fluorescence if present at 1 μM for red channel (=100%). Experimental details are given in example 4.

SuperSalt Taq Polymerase = test: Compatibility of dyes with PCR amplification (no inhibition of the PCR); assay type: biochemical; conditions: highest tested concentration which did not inhibit the PCR
Protocol: The Table gives the upper concentration of the agent at which there is no inhibition of the PCR. Two concentrations of Taq polymerase were compared: 5 and 10 units. Experimental details are given in example 3.
PCR was designed for the amplification of the 35 promoter element of DNA sample of a genetically modified organism (GMO).
For each tested light absorbing agent, PCR were performed with different concentrations of agent: 0.005, 0.01, 0.02, 0.05, 0.1, 0.5, 1 and 2% and either 5 U or 10 U of Taq polymerase in PCR mix. Controls tubes were performed without light absorbing agent with 5 U or 10 U of enzyme.
The PCR performed in PCR tubes in a thermocycler (Eppendorf, Hamburg, Germany). Samples were pre incubated for 10 min at 25° C. and then were first denatured at 94° C. for 3 min. Then 40 cycles of amplification were performed consisting of 30 sec at 95° C., 90 sec at 60° C. and 30 sec at 72° C.
After PCR, 1 μL of the PCR product was analyzed by electrophoresis (Agilent Technologies, 2100 Bioanalyzer). The expected size of the amplicon was 79 bp.

[2] = Intrinsic fluorescence of light absorbing agents at the emission wavelengths (green/red channel); assay type: physicochemical; conditions: for Intrinsic fluorescence (emission 666 nm) in % / Intrinsic fluorescence (emission 570 nm) in %: agent at 1%; for Intrinsic fluorescence (emission 666 nm) in %: compared to Oyster645 fluorescence at 1 μM (=100%); for Fluorescence at the emission wavelength of 570 nm (in words) / Intrinsic fluorescence (emission 570 nm) in %: green channel; for Intrinsic fluorescence (emission 570 nm) in %: compared to cy3 fluorescence at 1 μM (=100%)
Text: This concept is exemplified in Table 1. The dye Azure A is a good example. It can be used for the reduction of the fluorescence of a solution at the excitation/emission wavelength of 532/570 (green channel). […] However, the dye is fluorescent at the emission wavelength of 666 nm used in the red channel.
The dye Azure A is thus not capable of reducing the fluorescent of the solution beyond the intrinsic fluorescence of the light absorbing agent at the emission wavelength in the red channel. In presence of this agent, the fluorescence is about 38% (data not shown) the fluorescence value of the solution in the absence of light absorbing agent (=100%).
as §1

Compound | Absorbance spectrum peak [1] | Absorbance spectrum (estimated min-max) [1] | Maximum concentration in PCR (%) with 5 U Taq polymerase (SuperSalt Taq Polymerase) | Intrinsic fluorescence (emission 666 nm) in % ([2]; red channel) | Fluorescence at the emission wavelength of 570 nm (in words) [2] | Fluorescence at the emission wavelength of 666 nm (in words) ([2]; red channel) | Fluorescence of the solution in presence of the agent ([2]; red channel, solution without light absorbing agent = 100%, data not shown) | Maximum concentration in PCR (%) with 10 U Taq polymerase (SuperSalt Taq Polymerase) | Intrinsic fluorescence (emission 570 nm) in % [2]
O=C1/C(=C2\Nc3ccc(S(=O)(=O)[O-])cc3C2=O)Nc2ccc(S(=O)(=O)[O-])cc21.[Na+].[Na+] [(C) E132, E132] | 609 nm | 525-675 | 0.05% | – | – | – | – | – | –
CN(C)c1ccc2nc3ccc(N)cc3[s+]c2c1.[Cl-] [(E) Azure A, Azure A] | 636 nm | 450-700 | – | 38% | does not fluoresce | fluorescent | about 38% | – | –
O=S(=O)([O-])c1cc(S(=O)(=O)[O-])c2c(N=Nc3ccc(S(=O)(=O)[O-])c4ccccc34)c(O)ccc2c1.[Na+].[Na+].[Na+] [(G) E124, E124] | 508 nm | <400-585 | – | 18% | fluorescent | fluorescent | – | – | 18%
CCN(Cc1cccc(S(=O)(=O)[O-])c1)c1ccc(C(=C2C=CC(=[N+](CC)Cc3cccc(S(=O)(=O)[O-])c3)C=C2)c2ccccc2S(=O)(=O)[O-])cc1.[Na+].[Na+] [(L) E133, E133] | 635 nm | 525-690 | 0.05% | 33% | – | shows a basal fluorescence; also recorded: fluorescent | – | 0.1% | –
Black Intense [(A) Black Intense] | 565 nm | <400-675 | 0.05% | – | – | – | – | 0.1% | –
Blue Dextran [(B) Blue Dextran] | – | – | 0.5% | – | – | – | – | 1% | –
Brilliant Blue [(F) Brilliant Blue] | 585 nm | 500-690 | – | – | – | – | – | – | –
Ferritin [(H) Ferritin] | (no peak) | below 500 | – | 15% | fluorescent | fluorescent | – | – | 40%

Further lines, with some results ahead:

Absorbance spectrum peak [1] | Absorbance spectrum (estimated min-max) [1] | Maximum concentration in PCR (%) with 5 U Taq polymerase (SuperSalt Taq Polymerase) | Intrinsic fluorescence (emission 666 nm) in % ([2]; red channel) | Fluorescence at the emission wavelength of 570 nm (in words) [2] | Fluorescence at the emission wavelength of 666 nm (in words) ([2]; red channel) | Fluorescence of the solution in presence of the agent ([2]; red channel, solution without light absorbing agent = 100%, data not shown) | Maximum concentration in PCR (%) with 10 U Taq polymerase (SuperSalt Taq Polymerase) | Compound | Intrinsic fluorescence (emission 570 nm) in % [2]
571 nm | 475-670 | 0.05% | – | – | – | – | 0.1% | CC(=O)Nc1ccc(S(=O)(=O)[O-])c2cc(S(=O)(=O)[O-])c(N=Nc3ccc(N=Nc4ccc(S(=O)(=O)[O-])cc4)c4ccc(S(=O)(=O)[O-])cc34)c(O)c12.[Na+].[Na+].[Na+].[Na+] [(J) Black Brilliant, Black Brilliant] | –
635 nm | 525-690 | 0.05% | 47% | – | fluorescent | – | 0.1% | Blue Intense [(K) Blue Intense] | –
– | below 700 | – | – | – | – | – | – | Melanine [(M) Melanine] | –
